{"source": "paper PMC3355380", "about": "“Back to the Future: Lessons Learned in Modern Target-based and Whole-Cell Lead Optimization of Antimalarials” (Current Topics in Medicinal Chemistry, 2012)", "key": {"P. falciparum 3D7": {"system": "P. falciparum 3D7", "experiment": "P. falciparum 3D7 proliferation assay", "format": "cell-based, Plasmodium falciparum", "conditions": "Plasmodium falciparum, 3D7; imidazolopiperazine hits; mean of two experiments; read-out: P. falciparum 3D7 EC50", "excerpt": "(§1) We screened both our in-house compound collection (~2.3M compounds) and natural products library (12,000 compounds) using a cell based Plasmodium falciparum proliferation assay. This screen provided data on a large number of chemically diverse anti-malarial compounds. These nearly 5700 hits have been deposited into the public EBI database by GNF/Novartis. A number of these hits originated from kinase-directed libraries and many of which are pan-kinase inhibitors. De-convoluting and eliminating inherent kinase activity with many of these scaffolds while maintaining cellular potency was the first step in the hit-to-lead phase for these particular chemotypes. What follows is a summary of the chemical optimization of some kinase-like and non-kinase scaffolds which came out of the whole-cell screening effort."}, "P. falciparum W2": {"system": "P. falciparum W2", "experiment": "P. falciparum W2 proliferation assay", "format": "cell-based", "conditions": "Plasmodium falciparum, imidazolopiperazine hits, mean of two experiments", "excerpt": "as §1"}, "aqueous solubility": {"experiment": "aqueous solubility", "format": "physicochemical", "conditions": "aqueous medium, pH 6.8, aqueous buffer"}, "hERG": {"target": "hERG (Homo sapiens, UniProt Q12809)", "sequence (Q12809 whole entry)": "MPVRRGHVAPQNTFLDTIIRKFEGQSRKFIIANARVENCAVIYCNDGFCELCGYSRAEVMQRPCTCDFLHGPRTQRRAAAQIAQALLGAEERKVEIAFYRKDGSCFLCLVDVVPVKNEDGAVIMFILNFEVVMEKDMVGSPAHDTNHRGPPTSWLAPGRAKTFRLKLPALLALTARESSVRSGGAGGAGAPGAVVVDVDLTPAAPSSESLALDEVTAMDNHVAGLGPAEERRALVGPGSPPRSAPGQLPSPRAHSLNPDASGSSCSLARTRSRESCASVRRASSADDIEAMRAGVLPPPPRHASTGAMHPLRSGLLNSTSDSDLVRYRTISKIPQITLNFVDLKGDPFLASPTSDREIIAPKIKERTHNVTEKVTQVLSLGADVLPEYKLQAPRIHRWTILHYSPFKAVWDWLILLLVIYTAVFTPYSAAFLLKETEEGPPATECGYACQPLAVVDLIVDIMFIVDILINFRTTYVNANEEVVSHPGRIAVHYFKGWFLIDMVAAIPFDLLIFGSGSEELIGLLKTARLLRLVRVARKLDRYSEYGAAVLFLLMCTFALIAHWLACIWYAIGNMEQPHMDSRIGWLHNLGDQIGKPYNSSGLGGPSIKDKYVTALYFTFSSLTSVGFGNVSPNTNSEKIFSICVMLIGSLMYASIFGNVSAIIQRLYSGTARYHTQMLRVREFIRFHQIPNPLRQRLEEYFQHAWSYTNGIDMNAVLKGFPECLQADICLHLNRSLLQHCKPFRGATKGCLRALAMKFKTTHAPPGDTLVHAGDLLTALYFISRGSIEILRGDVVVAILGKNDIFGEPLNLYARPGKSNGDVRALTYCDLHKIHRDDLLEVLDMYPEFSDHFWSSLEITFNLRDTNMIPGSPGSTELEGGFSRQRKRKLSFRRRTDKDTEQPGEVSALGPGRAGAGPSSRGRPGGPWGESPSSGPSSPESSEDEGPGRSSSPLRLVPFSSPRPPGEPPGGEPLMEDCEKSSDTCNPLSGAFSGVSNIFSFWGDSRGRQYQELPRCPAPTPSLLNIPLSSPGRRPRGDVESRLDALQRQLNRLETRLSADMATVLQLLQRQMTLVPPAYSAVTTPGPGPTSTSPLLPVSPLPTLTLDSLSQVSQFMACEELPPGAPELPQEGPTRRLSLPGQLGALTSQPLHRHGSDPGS", "experiment": "hERG binding assay"}, "Huh7": {"system": "Huh7", "conditions": "human"}, "[1]": {"system": "panel of cytochrome P450 isoforms", "experiment": "in vitro"}, "Plasmodium berghei": {"system": "Plasmodium berghei", "experiment": "P. berghei murine model", "format": "in vivo"}, "[2]": {"experiment": "2-week rat toxicology study", "format": "in vivo"}, "[3]": {"target": "WT-PfDHFR (wild type PfDHFR)", "parameters": "method as in PMID 20350951", "conditions": "cited from earlier work"}, "[4]": {"target": "QM-PfDHFR (quadruple mutant PfDHFR)", "parameters": "method as in PMID 20350951", "conditions": "cited from earlier work"}, "hDHFR (human DHFR)": {"target": "hDHFR (human DHFR)", "parameters": "method as in PMID 20350951", "conditions": "cited from earlier work"}, "wild type P. falciparum": {"system": "wild type P. falciparum", "parameters": "method as in PMID 20350951", "conditions": "read-out: EC50 on wild type P. falciparum in vitro; cited from earlier work"}}, "note": "Marks after values point to notes of the source that are not given here.", "data": [{"compound": "NCC(=O)N1CCn2c(nc(-c3ccccc3)c2Nc2ccc3c(c2)OCO3)C1", "note": "[Compound 18a]", "values": [{"measurement": "EC50", "setting": "P. falciparum 3D7", "value": 63, "unit": "nM"}, {"measurement": "EC50", "setting": "P. falciparum W2", "value": 97, "unit": "nM"}, {"measurement": "solubility", "setting": "aqueous solubility", "value": "> 175", "unit": "µM"}, {"measurement": "IC50", "setting": "hERG", "value": 19000, "unit": "nM"}, {"measurement": "Cytotoxicity (µM) Huh7", "setting": "Huh7", "value": "> 10", "unit": "µM"}, {"measurement": "IC50", "setting": "[1]", "value": "> 10000", "unit": "nM"}]}, {"compound": "COc1ccc(OC)c(CNc2ccc3nc(N)nc(N)c3c2Cl)c1", "note": "[QN254, 5-Chloro-N'6'-(2 5 di-methoxy-benzyl)-quinazoline-2 4 6-triamine]", "values": [{"measurement": "Cure Rate (%)", "setting": "Plasmodium berghei; 3 x 30 (mg/kg)", "value": 80, "unit": "%"}, {"measurement": "Toxicity Rate (%)", "setting": "Plasmodium berghei; 3 x 30 (mg/kg)", "value": 0, "unit": "%"}, {"measurement": "Average Survival", "setting": "Plasmodium berghei; 3 x 30 (mg/kg), control survival 5.6 to 6.2 days", "value": 28.4, "unit": "days"}, {"measurement": "Cure Rate (%)", "setting": "Plasmodium berghei; 3 x 60 (mg/kg)", "value": 60, "unit": "%"}, {"measurement": "Parasitemia Reduction (%)", "setting": "Plasmodium berghei; 3 x 60 (mg/kg)", "value": "> 99.99", "unit": "%"}, {"measurement": "Toxicity Rate (%)", "setting": "Plasmodium berghei; 3 x 60 (mg/kg), mice died around day 10 and were parasite free", "value": "40^b %"}, {"measurement": "Cure Rate (%)", "setting": "Plasmodium berghei; 3 x 100 (mg/kg)", "value": 20, "unit": "%"}, {"measurement": "Parasitemia Reduction (%)", "setting": "Plasmodium berghei; 3 x 100 (mg/kg)", "value": "> 99.99", "unit": "%"}, {"measurement": "Toxicity Rate (%)", "setting": "Plasmodium berghei; 3 x 100 (mg/kg), mice died around day 10 and were parasite free", "value": "80^b %"}, {"measurement": "Parasitemia Reduction (%)", "setting": "Plasmodium berghei; dosing regimen 3 x 30 (mg/kg), oral, compared to untreated controls", "value": "> 99.99", "unit": "%"}, {"measurement": "histopathological analysis", "setting": "[2]; 2-week toxicology study", "value": "significant gastrointestinal and bone marrow toxicity"}, {"measurement": "tolerability", "setting": "[2]; 2 weeks, repeated oral administration of greater than 50 mg/kg", "value": "not tolerated"}, {"measurement": "Ki", "setting": "[3]", "value": "0.39 ± 0.05", "unit": "nM"}, {"measurement": "Ki", "setting": "[4]", "value": "0.58 ± 0.06", "unit": "nM"}, {"measurement": "Ki", "setting": "hDHFR (human DHFR)", "value": "10.2 ± 0.6", "unit": "nM"}, {"measurement": "EC50", "setting": "wild type P. falciparum", "value": 9, "unit": "nM"}]}]}
